Measured values reported in PMC9329436, “Optimization of the 4-anilinoquin(az)oline scaffold as epidermal growth factor receptor (EGFR) inhibitors for chordoma utilizing a toxicology profiling assay platform” (Scientific Reports, 2022).
Where two headings read alike, the source gives them in different places.

Tests used:
Assay type in all cases: biochemical
[1] = target: 320 wild-type protein kinases (Homo sapiens, UniProt Q9H1R3); settings: singlicate
Description: (§1) Table S4. Profiling of two compounds at two concentrations against 320 wild-type protein kinases; singlicate measurement; Residual activities (% of control).

[2] = target: 320 wild-type protein kinases (Homo sapiens, UniProt P07332); settings: FES, singlicate
Description: as §1

[3] = target: 320 wild-type protein kinases (Homo sapiens, UniProt Q8N5S9); settings: singlicate
Description: as §1

[4] = target: 320 wild-type protein kinases (Homo sapiens, UniProt Q06187); settings: BTK, singlicate
Description: as §1

[5] = target: T1, 320 wild-type protein kinases (Homo sapiens, UniProt P29320); settings: singlicate
T1 sequence (P29320 21-983): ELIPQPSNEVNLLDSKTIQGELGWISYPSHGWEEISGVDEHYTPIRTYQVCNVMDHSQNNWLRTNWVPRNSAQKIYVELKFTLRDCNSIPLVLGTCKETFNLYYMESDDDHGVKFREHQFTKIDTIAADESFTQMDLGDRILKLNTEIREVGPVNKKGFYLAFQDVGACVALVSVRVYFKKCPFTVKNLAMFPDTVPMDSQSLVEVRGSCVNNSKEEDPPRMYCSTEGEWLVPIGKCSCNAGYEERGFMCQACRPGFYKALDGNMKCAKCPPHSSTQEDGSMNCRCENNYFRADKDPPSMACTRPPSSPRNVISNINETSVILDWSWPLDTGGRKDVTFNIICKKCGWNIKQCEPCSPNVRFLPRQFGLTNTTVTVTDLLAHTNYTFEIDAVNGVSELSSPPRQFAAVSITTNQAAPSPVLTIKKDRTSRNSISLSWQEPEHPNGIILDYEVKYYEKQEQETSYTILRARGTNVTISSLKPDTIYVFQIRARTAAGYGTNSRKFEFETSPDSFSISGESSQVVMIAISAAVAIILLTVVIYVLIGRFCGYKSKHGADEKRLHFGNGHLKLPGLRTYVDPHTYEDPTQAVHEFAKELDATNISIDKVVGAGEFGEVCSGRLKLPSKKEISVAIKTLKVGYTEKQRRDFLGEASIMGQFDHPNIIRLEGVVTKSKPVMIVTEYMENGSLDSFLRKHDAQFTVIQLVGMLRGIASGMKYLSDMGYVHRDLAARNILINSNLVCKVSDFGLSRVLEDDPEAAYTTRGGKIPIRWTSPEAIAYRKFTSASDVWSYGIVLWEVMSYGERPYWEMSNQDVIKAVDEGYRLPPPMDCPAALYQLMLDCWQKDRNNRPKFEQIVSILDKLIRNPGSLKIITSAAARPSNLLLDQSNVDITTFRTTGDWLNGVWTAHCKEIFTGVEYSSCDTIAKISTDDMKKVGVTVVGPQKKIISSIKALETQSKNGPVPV
Description: as §1

[6] = target: T2, 320 wild-type protein kinases (Homo sapiens, UniProt P21709); settings: singlicate
T2 sequence (P21709 26-976): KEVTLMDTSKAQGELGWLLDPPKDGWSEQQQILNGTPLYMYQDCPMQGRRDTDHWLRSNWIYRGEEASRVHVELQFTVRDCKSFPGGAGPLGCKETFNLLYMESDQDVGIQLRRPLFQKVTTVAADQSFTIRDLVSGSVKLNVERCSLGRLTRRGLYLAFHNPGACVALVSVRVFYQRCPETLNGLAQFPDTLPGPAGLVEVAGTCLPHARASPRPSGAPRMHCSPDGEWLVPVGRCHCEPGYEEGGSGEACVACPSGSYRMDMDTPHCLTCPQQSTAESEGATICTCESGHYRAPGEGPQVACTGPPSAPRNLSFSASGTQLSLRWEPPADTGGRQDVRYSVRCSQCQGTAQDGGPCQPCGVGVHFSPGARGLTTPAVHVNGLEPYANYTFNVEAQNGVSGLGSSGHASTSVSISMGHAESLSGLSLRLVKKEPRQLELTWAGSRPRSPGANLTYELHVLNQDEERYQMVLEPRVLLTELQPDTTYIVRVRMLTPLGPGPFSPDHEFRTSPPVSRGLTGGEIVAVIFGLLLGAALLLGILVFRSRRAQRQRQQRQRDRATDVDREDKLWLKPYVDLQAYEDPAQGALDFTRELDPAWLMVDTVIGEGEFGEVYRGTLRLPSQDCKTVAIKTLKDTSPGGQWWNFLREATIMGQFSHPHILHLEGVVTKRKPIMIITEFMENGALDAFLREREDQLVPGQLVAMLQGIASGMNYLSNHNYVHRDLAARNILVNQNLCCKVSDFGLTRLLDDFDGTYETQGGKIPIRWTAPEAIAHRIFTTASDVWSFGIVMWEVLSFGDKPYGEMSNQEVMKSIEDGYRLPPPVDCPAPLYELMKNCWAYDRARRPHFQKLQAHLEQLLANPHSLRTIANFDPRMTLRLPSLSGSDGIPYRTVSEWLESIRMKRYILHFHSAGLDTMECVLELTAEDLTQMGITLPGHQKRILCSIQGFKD
Description: as §1

[7] = target: 320 wild-type protein kinases (Homo sapiens, UniProt Q16539); settings: p38-alpha, singlicate
Description: as §1

[8] = target: 320 wild-type protein kinases (Homo sapiens, UniProt P08631); settings: HCK, singlicate
Description: as §1

320 wild-type protein kinases (Homo sapiens, UniProt Q16539), sequence (Q16539 whole entry): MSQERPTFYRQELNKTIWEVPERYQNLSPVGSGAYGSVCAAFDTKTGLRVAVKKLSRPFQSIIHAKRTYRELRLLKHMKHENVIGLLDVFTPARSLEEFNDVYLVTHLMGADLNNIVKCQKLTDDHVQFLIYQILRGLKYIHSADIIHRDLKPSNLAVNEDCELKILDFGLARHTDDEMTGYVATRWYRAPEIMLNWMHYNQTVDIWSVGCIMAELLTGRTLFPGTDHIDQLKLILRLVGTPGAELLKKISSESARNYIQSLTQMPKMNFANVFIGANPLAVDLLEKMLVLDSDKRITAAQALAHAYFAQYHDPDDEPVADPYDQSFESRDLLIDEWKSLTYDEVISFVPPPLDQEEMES
320 wild-type protein kinases (Homo sapiens, UniProt Q9H1R3), sequence (Q9H1R3 whole entry): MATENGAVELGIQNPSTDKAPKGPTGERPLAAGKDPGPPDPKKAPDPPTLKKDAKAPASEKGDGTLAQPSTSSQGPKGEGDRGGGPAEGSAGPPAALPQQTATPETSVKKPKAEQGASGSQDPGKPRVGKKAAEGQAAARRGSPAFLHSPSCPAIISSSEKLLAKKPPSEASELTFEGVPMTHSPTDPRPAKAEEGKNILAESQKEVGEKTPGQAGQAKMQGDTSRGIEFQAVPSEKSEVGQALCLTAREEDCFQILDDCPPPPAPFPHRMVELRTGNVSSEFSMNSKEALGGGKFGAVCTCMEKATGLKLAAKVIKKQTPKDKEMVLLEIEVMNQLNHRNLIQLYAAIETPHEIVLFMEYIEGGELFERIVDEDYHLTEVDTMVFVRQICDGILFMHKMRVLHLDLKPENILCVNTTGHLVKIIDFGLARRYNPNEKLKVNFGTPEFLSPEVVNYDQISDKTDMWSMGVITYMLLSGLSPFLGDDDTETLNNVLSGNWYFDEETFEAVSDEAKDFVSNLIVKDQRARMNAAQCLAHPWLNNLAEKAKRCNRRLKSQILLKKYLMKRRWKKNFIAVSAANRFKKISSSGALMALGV
320 wild-type protein kinases (Homo sapiens, UniProt Q8N5S9), sequence (Q8N5S9 whole entry): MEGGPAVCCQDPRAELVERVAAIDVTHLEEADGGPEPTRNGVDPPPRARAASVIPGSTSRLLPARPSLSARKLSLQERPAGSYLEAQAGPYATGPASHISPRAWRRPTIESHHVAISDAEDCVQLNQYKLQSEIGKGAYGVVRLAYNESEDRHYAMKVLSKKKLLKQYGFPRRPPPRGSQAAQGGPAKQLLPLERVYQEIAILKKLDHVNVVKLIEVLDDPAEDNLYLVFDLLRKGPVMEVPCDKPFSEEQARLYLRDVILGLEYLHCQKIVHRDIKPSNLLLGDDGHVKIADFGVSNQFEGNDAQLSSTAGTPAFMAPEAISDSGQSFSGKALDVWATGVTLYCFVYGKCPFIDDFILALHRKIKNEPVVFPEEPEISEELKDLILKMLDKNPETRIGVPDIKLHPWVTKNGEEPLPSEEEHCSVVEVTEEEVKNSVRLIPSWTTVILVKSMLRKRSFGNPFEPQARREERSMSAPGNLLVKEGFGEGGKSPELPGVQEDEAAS
320 wild-type protein kinases (Homo sapiens, UniProt P07332), sequence (P07332 whole entry): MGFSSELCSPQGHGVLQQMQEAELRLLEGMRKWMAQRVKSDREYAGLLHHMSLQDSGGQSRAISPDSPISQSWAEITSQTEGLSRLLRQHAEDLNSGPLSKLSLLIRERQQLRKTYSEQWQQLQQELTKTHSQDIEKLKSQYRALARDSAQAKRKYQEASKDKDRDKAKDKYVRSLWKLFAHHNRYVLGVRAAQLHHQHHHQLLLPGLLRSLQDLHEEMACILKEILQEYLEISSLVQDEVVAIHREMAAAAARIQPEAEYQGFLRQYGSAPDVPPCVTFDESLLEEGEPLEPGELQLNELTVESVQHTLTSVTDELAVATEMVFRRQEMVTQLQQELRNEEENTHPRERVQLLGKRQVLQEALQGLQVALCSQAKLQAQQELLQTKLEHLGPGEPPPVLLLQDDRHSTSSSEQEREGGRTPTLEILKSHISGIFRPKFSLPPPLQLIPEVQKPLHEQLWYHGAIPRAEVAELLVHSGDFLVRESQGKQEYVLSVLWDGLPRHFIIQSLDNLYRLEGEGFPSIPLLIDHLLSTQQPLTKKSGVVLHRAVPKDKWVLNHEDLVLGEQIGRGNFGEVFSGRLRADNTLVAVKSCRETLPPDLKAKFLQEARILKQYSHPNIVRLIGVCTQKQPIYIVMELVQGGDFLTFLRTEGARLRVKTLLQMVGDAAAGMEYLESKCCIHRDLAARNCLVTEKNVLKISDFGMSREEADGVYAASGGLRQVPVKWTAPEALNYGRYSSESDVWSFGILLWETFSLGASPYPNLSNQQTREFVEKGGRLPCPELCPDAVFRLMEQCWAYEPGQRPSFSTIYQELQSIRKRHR
320 wild-type protein kinases (Homo sapiens, UniProt P08631), sequence (P08631 whole entry): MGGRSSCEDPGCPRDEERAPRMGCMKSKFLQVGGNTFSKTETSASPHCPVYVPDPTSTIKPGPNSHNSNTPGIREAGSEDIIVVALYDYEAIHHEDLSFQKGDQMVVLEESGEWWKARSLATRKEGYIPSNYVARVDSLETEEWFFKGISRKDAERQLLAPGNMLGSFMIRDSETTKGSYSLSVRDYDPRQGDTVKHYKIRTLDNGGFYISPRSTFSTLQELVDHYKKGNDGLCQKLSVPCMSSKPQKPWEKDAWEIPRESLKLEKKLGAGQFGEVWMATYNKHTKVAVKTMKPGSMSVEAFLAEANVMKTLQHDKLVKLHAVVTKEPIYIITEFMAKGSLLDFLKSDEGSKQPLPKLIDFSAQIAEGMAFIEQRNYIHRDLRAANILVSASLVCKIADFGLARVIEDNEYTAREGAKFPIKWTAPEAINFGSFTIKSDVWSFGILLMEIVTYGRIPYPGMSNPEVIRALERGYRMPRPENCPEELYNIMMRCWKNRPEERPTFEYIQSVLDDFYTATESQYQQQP
320 wild-type protein kinases (Homo sapiens, UniProt Q06187), sequence (Q06187 whole entry): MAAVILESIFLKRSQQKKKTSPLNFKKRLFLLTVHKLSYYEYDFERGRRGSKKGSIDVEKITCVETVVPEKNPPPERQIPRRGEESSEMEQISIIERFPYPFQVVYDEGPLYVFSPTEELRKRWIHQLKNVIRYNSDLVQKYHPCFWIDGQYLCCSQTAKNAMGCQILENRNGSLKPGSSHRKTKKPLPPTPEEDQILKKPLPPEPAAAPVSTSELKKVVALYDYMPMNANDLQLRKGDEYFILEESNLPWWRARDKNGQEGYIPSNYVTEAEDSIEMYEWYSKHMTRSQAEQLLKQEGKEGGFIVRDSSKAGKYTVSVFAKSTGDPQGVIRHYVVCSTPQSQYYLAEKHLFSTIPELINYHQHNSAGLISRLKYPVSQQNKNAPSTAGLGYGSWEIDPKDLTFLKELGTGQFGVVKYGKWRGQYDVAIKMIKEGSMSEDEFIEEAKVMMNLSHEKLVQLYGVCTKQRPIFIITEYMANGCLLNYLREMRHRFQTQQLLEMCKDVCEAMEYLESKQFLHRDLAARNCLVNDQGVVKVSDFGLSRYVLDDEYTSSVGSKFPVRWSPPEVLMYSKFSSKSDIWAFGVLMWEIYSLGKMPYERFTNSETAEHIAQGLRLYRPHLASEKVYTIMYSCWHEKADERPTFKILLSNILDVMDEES

Compound	Residual activity ([1]; MYLK2, 1.0E-06 M)	Residual activity ([1]; MYLK2, 1.0E-07 M)	Residual activity ([2]; 1.0E-06 M)	Residual activity ([2]; 1.0E-07 M)	Residual activity ([3]; CAMKK1, 1.0E-06 M)	Residual activity ([3]; CAMKK1, 1.0E-07 M)	Residual activity ([4]; 1.0E-06 M)	Residual activity ([4]; 1.0E-07 M)	Residual activity ([5]; EPHA3, 1.0E-06 M)	Residual activity ([5]; EPHA3, 1.0E-07 M)	Residual activity ([6]; EPHA1, 1.0E-06 M)	Residual activity ([6]; EPHA1, 1.0E-07 M)	Residual activity ([7]; 1.0E-06 M)	Residual activity ([7]; 1.0E-07 M)	Residual activity ([8]; 1.0E-06 M)	Residual activity ([8]; 1.0E-07 M)
C#Cc1cc(Nc2ncnc3cc(I)ccc23)ccc1Cl [Compound 41]	75 % of control	90 % of control	93 % of control	118 % of control	84 % of control	87 % of control	100 % of control	103 % of control	119 % of control	118 % of control	78 % of control	106 % of control	71 % of control	103 % of control	90 % of control	110 % of control
C#Cc1cc(Nc2ncnc3cc(OC)c(OC)cc23)ccc1Cl [Compound 45]	70 % of control	89 % of control	97 % of control	107 % of control	110 % of control	91 % of control	65 % of control	100 % of control	111 % of control	128 % of control	80 % of control	91 % of control	56 % of control	96 % of control	72 % of control	102 % of control
